Source: patent publication US20250134863A1, “MEDICAL AGENT FOR TREATING OR SUPPRESSING PROGRESSION OF AMYOTROPHIC LATERAL SCLEROSIS” (MITSUBISHI TANABE PHARMA CORPORATION, priority 2022, published 2025)
Several values for one entry are separate records, joined by “and”; a condition that tells them apart may be missing. Equal values may be shown once.

Experiments:
ALS patients [1] = assay: Post-hoc statistical analysis 1: percent change in ALSFRS-R slope on transition from placebo to edaravone (16, 17 and 19 trials); assay type: in vivo, human; settings: for Percentage change in ALSFRS-R slope, Median: Wilcoxon p=0.0433
Source text: (§1) After a 12-week observation period, patients whose ALSFRS-R total score decreased by 1 to 4 points during that period were considered eligible for the trial. In the 16 trial, eligible patients were randomly divided into an edaravone treatment group and a placebo administration group, and patients in each group received administration for 24 weeks (cycles 1 to 6). After completing the 24-week double-blind portion of the 16 trial, patients who received edaravone (E) were randomly assigned to the 17 trial, and during a 24-week double-blind extension period (cycles 7 to 12), edaravone treatment (EE group) or placebo administration (EP group) was performed. On the other hand, all patients from the placebo (P) administration group received edaravone treatment (PE group). All patients received open-label edaravone treatment for the next 12 weeks (cycles 13 to 15).
(§2) Edaravone was administered at a dose of 60 mg by intravenous infusion over 60 minutes, once daily. The infusion was given for 14 days in the first treatment cycle, and for 10 days out of the 14-day treatment period in all subsequent cycles. A 14-day drug holiday period was provided after each treatment cycle.
(§3) Similar to the 16 trial, after a 12-week observation period, patients in the 19 trial were randomly divided into an edaravone treatment group and a placebo administration group, and patients in each group received administration for 24 weeks (cycles 1 to 6). In the 19 trial, after the double-blind treatment period, all patients received open-label edaravone treatment for an additional 24 weeks (cycles 7 to 12). Therefore, the 19 trial included an EE group and a PE group.
In the present analysis, efficacy was analyzed for placebo patients who had completed the 24-week double-blind period (cycles 1 to 6) and had at least one data point in cycle 7. To estimate the percent change in ALSFRS-R slope for transition from placebo administration (baseline to 24 weeks) to edaravone administration (24 weeks 24 to 48 weeks), a random coefficient model was applied to all available ALSFRS-R score data during this period.
A 25% improvement group meets both of the following criteria:
(1) ALSFRS-R slope % change ≥+25% (this change is defined as a clinically significant improvement (Reference 5: Amyotroph Lateral Scler 2010; 11 (1-2): 178-180)) and (2) ALSFRS-R total score at the start of cycle 7 (24 weeks)>24 points (half of the 48-point ALSFRS-R total score) (this helps avoid floor effects related to the ALSFRS-R total score that could lead to false positives in the analysis).
These criteria were used to define a 25% improvement group and a non-25% improvement group. Using a mixed model for repeated measures, the changes in uric acid levels from the start of cycle 7 (24 weeks) to cycle 12 (48 weeks) were summarized for the 25% improvement group and the non-25% improvement group. The correlation between the change in uric acid levels from 24 weeks to 48 weeks and the ALSFRS-R slope percent change was descriptively summarized using the Wilcoxon test.

ALS patients [2] = assay: Post-hoc statistical analysis 2: ALSFRS-R total score from baseline to cycle 12 (16, 17 and 19 trials), MMRM; assay type: in vivo, human
Source text: as §1, §2, §3
In order to characterize the uric acid level and ALSFRS-R total score profiles at cycle 12, efficacy was analyzed in randomized ALS patients at the start of cycle 7 and randomized ALS patients who received the medical agent at least once after the start of cycle 7.
Descriptive statistics (number of subjects, mean, standard deviation, minimum, maximum) were used to summarize the changes in uric acid levels (mg/dL) and ALSFRS-R total scores from baseline to cycle 12 for the entire population and for the Edaravone treatment group as a subgroup defined by the median baseline uric acid level (4.8 mg/dL). The median baseline uric acid level for all patients (4.8 mg/dL) was derived using the entire edaravone population, including the EE, PE, and EP groups in the 16 trial, the 17 trial, and the 19 trial.
The least squares (LS) mean difference of the EE and EP treatment groups compared to the PE treatment group was estimated using a mixed-effects model for repeated measures (MMRM). By using the MMRM, the LS mean, standard error, 95% confidence interval (CI), and p-value for each group are calculated. The MMRM includes treatment group, time point, interaction between treatment group and time point, age (<65 years or >65 years), initial symptoms (bulbar or limb symptoms), ALS diagnostic criteria (ALS definite, ALS highly possible, ALS highly possible with positive test findings, ALS possible), change in ALSFRS-R total score during the 12-week observation period (−1/−2 or −3/−4), and use of riluzole (Yes or No) as fixed effects, and includes baseline of the ALSFRS-R total score or uric acid baseline (mg/dL) of the median subgroup as covariates. A compound symmetric covariance matrix was applied to model covariance of within-patient scores, and the Kenward-Roger approximation was applied to estimate a degrees of freedom of the criteria. The statistical significance level was set at a two-sided level of 0.05.

ALS patients [3] = assay: Post-hoc statistical analysis 2: uric acid levels from baseline to cycle 12 (16, 17 and 19 trials); assay type: in vivo, human; settings: placebo-controlled double-blind period (cycles 1-6); edaravone group vs placebo group
ALS patients [4] = settings: 18 trial; ALS severity of grade 3; very small number of cases; cited from earlier work
[5] = entire placebo-edaravone treatment population
[6] = Subgroup with uric acid level baseline <4.8 mg/dL, EE group
[7] = Subgroup with uric acid level baseline <4.8 mg/dL, EP group
[8] = Subgroup with uric acid level baseline <4.8 mg/dL, PE group
[9] = Subgroup with uric acid level baseline ≥4.8 mg/dL, EE group
[10] = Subgroup with uric acid level baseline ≥4.8 mg/dL, EP group
[11] = Subgroup with uric acid level baseline ≥4.8 mg/dL, PE group

CC1=NN(c2ccccc2)C(=O)C1 [edaravone, 3-methyl-1-phenyl-2-pyrazolin-5-one]
proportion of patients showing improvement in ALSFRS-R slope (ALS patients [1]; ALS severity grade 3): 64.3% | proportion of patients with at least a 25% improvement in ALSFRS-R slope, cutoff of 24 points (ALS patients [1]; ALS severity grade 3): 35.7% | proportion of patients showing improvement in ALSFRS-R slope (ALS patients [1]; ALS severity grade 4): 66.7% | proportion of patients with at least a 25% improvement in ALSFRS-R slope, cutoff of 24 points (ALS patients [1]; ALS severity grade 4): 33.3% | patients with 25% improvement in ALSFRS-R slope of edaravone compared to placebo (ALS patients [1]; ALS severity of grade 3 or 4 at the start of cycle 7, about one-third): 21/60 | Percentage change in ALSFRS-R slope, Median (ALS patients [1]; change in uric acid level >0 (n=41)): 14% | Percentage change in ALSFRS-R slope, Mean (SD) (ALS patients [1]; change in uric acid level >0 from start of cycle 7 to last administration of cycle 12 (n=41)): −64 (199) % | Percentage change in ALSFRS-R slope, Median (ALS patients [1]; change in uric acid level ≤0 (n=105)): −38% | Percentage change in ALSFRS-R slope, Mean (SD) (ALS patients [1]; change in uric acid level ≤0 from start of cycle 7 to last administration of cycle 12 (n=105)): −201 (664) % | proportion of patients showing improvement in ALSFRS-R slope upon transition from placebo to edaravone treatment (ALS patients [1]; [5]): 43.2% and 43% | proportion of patients with at least a 25% improvement in ALSFRS-R slope, cutoff of 24 points (ALS patients [1]; [5]): 24% | ALSFRS-R total score change from BL to cycle 12, LS Mean (SE) (ALS patients [2]; Overall, EE group): −7.2 (1.17) points | ALSFRS-R total score change from BL to cycle 12, Mean (SD) (ALS patients [2]; Overall, EE group): −8.1 points | ALSFRS-R total score change from BL to cycle 12, Mean (SD) (ALS patients [2]; Overall, EE group, listed as Edaravone): −8.1 (5.97) points | ALSFRS-R total score change from BL to cycle 12, LS Mean (SE) (ALS patients [2]; Overall, EP group): −8.7 (1.28) points | ALSFRS-R total score change from BL to cycle 12, Mean (SD) (ALS patients [2]; Overall, EP group): −9.6 (6.88) points | ALSFRS-R total score at Cycle 12, Mean (SD) (ALS patients [2]; Overall, Edaravone-Edaravone (EE) group): 33.3 (7.66) points | ALSFRS-R total score at Cycle 12, Mean (SD) (ALS patients [2]; Overall, Edaravone-Placebo (EP) group): 31.3 (7.74) points | ALSFRS-R total score change from BL to cycle 12, LS Mean (SE) (ALS patients [2]; Overall, PE group): −9.9 (1.12) points | ALSFRS-R total score change from BL to cycle 12, Mean (SD) (ALS patients [2]; Overall, PE group): −10.3 (7.70) points | ALSFRS-R total score at Cycle 12, Mean (SD) (ALS patients [2]; Overall, Placebo-Edaravone (PE) group): 31.2 (8.64) points | ALSFRS-R total score at Cycle 12, Mean (SD) (ALS patients [2]; [6]): 32.6 (8.48) points | ALSFRS-R total score change from BL to cycle 12, LS Mean (SE) (ALS patients [2]; [6]): −7.0 (1.38) points | ALSFRS-R total score change from BL to cycle 12, Mean (SD) (ALS patients [2]; [6]): −8.7 points | ALSFRS-R total score change from BL to cycle 12, Mean (SD) (ALS patients [2]; Subgroup with uric acid level baseline <4.8 mg/dL, EE group, listed as Edaravone): −8.7 (6.95) points | ALSFRS-R total score at Cycle 12, Mean (SD) (ALS patients [2]; [7]): 31.5 (7.66) points | ALSFRS-R total score change from BL to cycle 12, LS Mean (SE) (ALS patients [2]; [7]): −7.8 (1.78) points | ALSFRS-R total score change from BL to cycle 12, Mean (SD) (ALS patients [2]; [7]): −9.7 (7.17) points | ALSFRS-R total score at Cycle 12, Mean (SD) (ALS patients [2]; [8]): 31.6 (7.99) points | ALSFRS-R total score change from BL to cycle 12, LS Mean (SE) (ALS patients [2]; [8]): −8.5 (1.37) points | ALSFRS-R total score change from BL to cycle 12, Mean (SD) (ALS patients [2]; [8]): −9.7 (7.30) points | ALSFRS-R total score at Cycle 12, Mean (SD) (ALS patients [2]; [9]): 34.0 (6.65) points | ALSFRS-R total score change from BL to cycle 12, LS Mean (SE) (ALS patients [2]; [9]): −8.1 (0.91) points | ALSFRS-R total score change from BL to cycle 12, Mean (SD) (ALS patients [2]; [9]): −7.4 points | ALSFRS-R total score change from BL to cycle 12, Mean (SD) (ALS patients [2]; Subgroup with uric acid level baseline ≥4.8 mg/dL, EE group, listed as Edaravone): −7.4 (4.63) points | ALSFRS-R total score at Cycle 12, Mean (SD) (ALS patients [2]; [10]): 31.1 (7.97) points | ALSFRS-R total score change from BL to cycle 12, LS Mean (SE) (ALS patients [2]; [10]): −10.3 (1.05) points | ALSFRS-R total score change from BL to cycle 12, Mean (SD) (ALS patients [2]; [10]): −9.5 (6.82) points | ALSFRS-R total score at Cycle 12, Mean (SD) (ALS patients [2]; [11]): 30.8 (9.20) points | ALSFRS-R total score change from BL to cycle 12, LS Mean (SE) (ALS patients [2]; [11]): −12.0 (0.77) points | ALSFRS-R total score change from BL to cycle 12, Mean (SD) (ALS patients [2]; [11]): −10.9 (8.03) points | decrease in uric acid levels from baseline at cycle 6 (ALS patients [3]): smaller decrease in uric acid levels compared to the placebo group | change in ALSFRS-R total score compared to placebo (ALS patients [4]): no statistically significant difference was observed compared to placebo
